Results taken from US9403823B2, “Protein kinase inhibitors” (ORIBASE PHARMA, priority 2012, dated 2016).
Read-outs that look alike come from different tables or passages of the source. Marks after values point to notes of the source that are not given here. Values belong to the compound of their own block, whether it stands above or below them.

Assays:
BRAF = target: T1, BRAF (Homo sapiens, UniProt P15056); assay: In vitro kinase assay (Z'-LYTE), BRAF; assay type: biochemical; conditions: read-out: % of inhibition of the kinase compared to the control
T1 construct: purchased Invitrogen
Outline: (§1)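 FRET-based Z'-LYTE coupled-enzyme assay: kinase phosphorylates a dual-fluorophore peptide, unphosphorylated peptide is protease-cleaved, and donor/acceptor emission ratio after 400 nm excitation quantifies progress. Buffer 50 mM HEPES pH 7.5, 10 mM MgCl2, 1 mM EGTA, 0.01% BRIJ-35; 1% DMSO final. Single compound concentration: 100 nM, or 10 μM for ABL and ABL T315I.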

EGFR (ErbB1) = target: T2, EGFR (ErbB1) (Homo sapiens, UniProt P00533); assay: In vitro kinase assay (Z'-LYTE), EGFR (ErbB1); assay type: biochemical; conditions: read-out: % of inhibition of the kinase compared to the control
T2 construct: purchased Invitrogen
T2 sequence (P00533 25-1210): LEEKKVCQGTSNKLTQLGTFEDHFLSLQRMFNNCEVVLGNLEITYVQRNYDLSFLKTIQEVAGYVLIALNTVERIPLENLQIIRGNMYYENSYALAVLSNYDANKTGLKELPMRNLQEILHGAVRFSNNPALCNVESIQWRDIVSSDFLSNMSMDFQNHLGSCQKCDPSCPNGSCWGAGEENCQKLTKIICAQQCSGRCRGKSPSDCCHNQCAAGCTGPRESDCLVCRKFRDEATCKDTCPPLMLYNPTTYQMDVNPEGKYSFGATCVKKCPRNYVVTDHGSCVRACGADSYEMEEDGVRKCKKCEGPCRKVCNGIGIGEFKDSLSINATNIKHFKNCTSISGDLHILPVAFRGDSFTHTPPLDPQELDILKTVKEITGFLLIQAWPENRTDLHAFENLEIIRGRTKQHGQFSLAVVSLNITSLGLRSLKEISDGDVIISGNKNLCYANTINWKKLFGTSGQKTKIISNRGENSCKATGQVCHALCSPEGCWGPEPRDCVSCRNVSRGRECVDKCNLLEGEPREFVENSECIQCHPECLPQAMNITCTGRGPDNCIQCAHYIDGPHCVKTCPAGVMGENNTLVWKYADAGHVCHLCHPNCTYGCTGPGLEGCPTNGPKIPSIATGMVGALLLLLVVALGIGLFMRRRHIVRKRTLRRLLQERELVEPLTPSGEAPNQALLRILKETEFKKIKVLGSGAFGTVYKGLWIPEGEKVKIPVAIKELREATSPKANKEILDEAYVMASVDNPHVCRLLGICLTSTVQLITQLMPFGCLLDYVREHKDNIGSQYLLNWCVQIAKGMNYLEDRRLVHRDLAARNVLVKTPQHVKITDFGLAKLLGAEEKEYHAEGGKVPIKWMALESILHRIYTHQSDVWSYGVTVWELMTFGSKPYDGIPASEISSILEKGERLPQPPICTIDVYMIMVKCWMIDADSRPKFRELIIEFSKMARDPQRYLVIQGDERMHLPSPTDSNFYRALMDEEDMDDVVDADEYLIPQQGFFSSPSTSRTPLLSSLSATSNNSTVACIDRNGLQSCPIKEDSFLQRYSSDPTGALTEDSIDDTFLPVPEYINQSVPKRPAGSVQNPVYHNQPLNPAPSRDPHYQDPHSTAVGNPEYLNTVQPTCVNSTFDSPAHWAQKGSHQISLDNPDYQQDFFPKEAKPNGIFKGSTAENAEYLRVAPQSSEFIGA
Outline: as §1

EGFR (ErbB1) T790M L858R = target: T3, EGFR (ErbB1) T790M L858R (Homo sapiens, UniProt P00533, L858R/T790M); assay: In vitro kinase assay (Z'-LYTE), EGFR (ErbB1) T790M L858R; assay type: biochemical; conditions: read-out: % of inhibition of the kinase compared to the control
T3 construct: purchased Invitrogen
T3 sequence (P00533 25-1210 T790M/L858R): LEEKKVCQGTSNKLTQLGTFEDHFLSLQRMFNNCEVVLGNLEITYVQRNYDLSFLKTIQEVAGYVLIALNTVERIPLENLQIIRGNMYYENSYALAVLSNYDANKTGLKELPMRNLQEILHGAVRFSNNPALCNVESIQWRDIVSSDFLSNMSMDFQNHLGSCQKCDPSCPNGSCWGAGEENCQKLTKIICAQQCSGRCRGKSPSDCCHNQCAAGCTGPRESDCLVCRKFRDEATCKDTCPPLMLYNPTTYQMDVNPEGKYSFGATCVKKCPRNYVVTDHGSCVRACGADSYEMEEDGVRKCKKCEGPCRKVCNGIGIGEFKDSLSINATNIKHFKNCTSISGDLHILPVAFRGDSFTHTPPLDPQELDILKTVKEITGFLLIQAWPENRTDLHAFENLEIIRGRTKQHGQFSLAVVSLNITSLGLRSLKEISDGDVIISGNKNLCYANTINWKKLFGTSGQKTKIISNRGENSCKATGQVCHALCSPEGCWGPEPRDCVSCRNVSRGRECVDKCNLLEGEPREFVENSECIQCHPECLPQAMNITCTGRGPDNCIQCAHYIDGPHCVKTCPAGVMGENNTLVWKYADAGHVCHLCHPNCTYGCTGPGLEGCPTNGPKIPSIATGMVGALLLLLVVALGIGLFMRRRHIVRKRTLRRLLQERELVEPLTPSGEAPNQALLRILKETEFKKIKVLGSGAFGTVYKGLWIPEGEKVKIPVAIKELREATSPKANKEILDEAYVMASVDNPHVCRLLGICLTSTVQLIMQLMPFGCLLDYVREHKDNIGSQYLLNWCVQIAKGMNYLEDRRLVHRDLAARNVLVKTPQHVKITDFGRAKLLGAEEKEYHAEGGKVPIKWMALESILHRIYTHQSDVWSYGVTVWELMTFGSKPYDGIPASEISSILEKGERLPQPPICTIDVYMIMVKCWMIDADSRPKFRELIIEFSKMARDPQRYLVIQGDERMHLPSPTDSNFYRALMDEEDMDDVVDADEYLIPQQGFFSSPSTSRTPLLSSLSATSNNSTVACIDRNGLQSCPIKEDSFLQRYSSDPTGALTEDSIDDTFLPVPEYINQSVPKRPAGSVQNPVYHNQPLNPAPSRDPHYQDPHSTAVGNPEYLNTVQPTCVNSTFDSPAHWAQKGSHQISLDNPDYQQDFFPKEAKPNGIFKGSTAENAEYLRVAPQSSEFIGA
Outline: as §1

FGFR2 = target: T4, FGFR2 (Homo sapiens, UniProt P21802); assay: In vitro kinase assay (Z'-LYTE), FGFR2; assay type: biochemical; conditions: read-out: % of inhibition of the kinase compared to the control
T4 construct: purchased Invitrogen
T4 sequence (P21802 22-821): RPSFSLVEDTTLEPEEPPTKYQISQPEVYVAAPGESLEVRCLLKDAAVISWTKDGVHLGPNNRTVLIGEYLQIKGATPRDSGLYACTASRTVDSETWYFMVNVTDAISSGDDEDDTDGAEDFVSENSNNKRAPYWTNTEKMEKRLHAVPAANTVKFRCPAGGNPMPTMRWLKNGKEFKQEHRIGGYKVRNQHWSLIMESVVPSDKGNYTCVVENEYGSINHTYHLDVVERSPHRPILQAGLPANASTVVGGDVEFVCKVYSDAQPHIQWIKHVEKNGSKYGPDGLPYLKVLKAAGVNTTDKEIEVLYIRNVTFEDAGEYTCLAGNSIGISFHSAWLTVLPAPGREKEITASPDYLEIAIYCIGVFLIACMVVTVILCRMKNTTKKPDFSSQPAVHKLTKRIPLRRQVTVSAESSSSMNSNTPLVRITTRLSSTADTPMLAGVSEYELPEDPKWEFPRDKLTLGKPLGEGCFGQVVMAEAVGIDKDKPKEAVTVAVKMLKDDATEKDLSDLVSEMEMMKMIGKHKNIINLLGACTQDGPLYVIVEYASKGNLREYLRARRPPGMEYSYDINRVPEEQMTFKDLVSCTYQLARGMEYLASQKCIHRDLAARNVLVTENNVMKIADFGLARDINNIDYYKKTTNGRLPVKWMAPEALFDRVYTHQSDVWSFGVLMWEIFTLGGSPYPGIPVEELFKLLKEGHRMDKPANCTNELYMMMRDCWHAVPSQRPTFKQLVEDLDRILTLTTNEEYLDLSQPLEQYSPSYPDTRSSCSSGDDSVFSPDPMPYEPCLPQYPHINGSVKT
Outline: as §1

KDR (VEGFR2) = target: T5, KDR (VEGFR2) (Homo sapiens, UniProt P35968); assay: In vitro kinase assay (Z'-LYTE), KDR (VEGFR2); assay type: biochemical; conditions: read-out: % of inhibition of the kinase compared to the control
T5 construct: purchased Invitrogen
T5 sequence (P35968 20-1356): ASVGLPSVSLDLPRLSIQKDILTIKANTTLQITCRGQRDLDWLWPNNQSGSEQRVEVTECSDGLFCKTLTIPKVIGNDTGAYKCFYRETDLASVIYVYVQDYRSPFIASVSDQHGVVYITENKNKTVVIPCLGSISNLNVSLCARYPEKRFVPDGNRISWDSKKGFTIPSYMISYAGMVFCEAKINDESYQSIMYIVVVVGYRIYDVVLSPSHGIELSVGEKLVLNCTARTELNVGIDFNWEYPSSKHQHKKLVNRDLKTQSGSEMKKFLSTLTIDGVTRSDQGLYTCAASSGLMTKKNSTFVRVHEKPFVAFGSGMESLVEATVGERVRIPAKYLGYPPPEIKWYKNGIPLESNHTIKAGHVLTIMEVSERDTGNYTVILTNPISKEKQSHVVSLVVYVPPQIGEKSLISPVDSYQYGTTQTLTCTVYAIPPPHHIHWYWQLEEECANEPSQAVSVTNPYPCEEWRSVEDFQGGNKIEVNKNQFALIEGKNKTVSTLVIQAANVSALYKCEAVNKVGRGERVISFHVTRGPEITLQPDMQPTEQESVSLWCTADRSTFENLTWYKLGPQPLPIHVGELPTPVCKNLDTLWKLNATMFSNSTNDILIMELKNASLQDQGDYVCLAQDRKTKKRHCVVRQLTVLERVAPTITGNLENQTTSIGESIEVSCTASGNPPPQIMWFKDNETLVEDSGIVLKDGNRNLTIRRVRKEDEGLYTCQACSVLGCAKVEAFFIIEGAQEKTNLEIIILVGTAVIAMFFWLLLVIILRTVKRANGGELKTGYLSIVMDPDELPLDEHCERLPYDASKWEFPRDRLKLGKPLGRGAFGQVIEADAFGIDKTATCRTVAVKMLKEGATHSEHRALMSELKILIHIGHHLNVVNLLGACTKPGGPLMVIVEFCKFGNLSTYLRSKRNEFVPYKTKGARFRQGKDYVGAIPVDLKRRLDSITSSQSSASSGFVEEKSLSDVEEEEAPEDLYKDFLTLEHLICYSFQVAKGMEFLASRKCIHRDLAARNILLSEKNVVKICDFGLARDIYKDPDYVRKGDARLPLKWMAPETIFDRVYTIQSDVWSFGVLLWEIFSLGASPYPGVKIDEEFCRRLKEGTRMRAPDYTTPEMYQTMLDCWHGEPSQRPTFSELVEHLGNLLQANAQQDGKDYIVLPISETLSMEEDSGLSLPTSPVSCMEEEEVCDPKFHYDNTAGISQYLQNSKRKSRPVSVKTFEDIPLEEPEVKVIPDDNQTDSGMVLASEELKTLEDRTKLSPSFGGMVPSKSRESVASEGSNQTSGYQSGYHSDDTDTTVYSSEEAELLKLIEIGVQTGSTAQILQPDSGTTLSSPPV
Outline: as §1

PDGFRA (PDGFR alpha) = target: T6, PDGFRA (PDGFR alpha) (Homo sapiens, UniProt P16234); assay: In vitro kinase assay (Z'-LYTE), PDGFRA; assay type: biochemical; conditions: read-out: % of inhibition of the kinase compared to the control
T6 construct: purchased Invitrogen
Outline: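 Inhibition read as emission ratio (donor/acceptor, 400 nm excitation) of a FRET-labelled peptide, phosphorylation protecting it from proteolytic cleavage. Compounds tested once at 100 nM for VEGFR1 and PDGFRA, at 10 μM for ABL and ABL T315I, 1% DMSO final. ATP at previously determined apparent Km.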

SRC = target: T7, SRC (Homo sapiens, UniProt P12931); assay: In vitro kinase assay (Z'-LYTE), SRC; assay type: biochemical; conditions: read-out: % of inhibition of the kinase compared to the control
T7 construct: purchased Invitrogen
T7 sequence (P12931 whole entry): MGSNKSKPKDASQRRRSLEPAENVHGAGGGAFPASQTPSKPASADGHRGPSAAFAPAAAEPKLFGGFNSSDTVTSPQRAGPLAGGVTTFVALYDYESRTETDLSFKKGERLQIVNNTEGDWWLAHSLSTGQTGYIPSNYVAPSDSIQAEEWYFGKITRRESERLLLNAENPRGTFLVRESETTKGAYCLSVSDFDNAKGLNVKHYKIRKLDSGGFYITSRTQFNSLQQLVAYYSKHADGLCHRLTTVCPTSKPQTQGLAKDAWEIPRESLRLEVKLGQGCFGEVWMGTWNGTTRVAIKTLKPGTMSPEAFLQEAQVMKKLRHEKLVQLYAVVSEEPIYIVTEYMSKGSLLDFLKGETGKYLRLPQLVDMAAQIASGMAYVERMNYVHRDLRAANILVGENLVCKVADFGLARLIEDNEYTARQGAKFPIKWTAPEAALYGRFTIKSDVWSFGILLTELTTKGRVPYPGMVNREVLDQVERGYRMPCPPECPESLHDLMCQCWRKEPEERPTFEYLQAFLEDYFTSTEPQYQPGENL
Outline: as §1

A549 cell line = assay: In vitro cell proliferation assay (MTT), A549; assay type: cell-based; conditions: Homo sapiens; A549, 72 hr, MTT; read-out: EC50, anti-proliferative activity
Outline: (§2)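 Cancer cell lines were seeded at 5×10^3 cells per well and HRMEC at 1×10^4 cells per well, then incubated in duplicate with escalating compound concentrations (10 nM to 3 μM) for 72 hr. Proliferation was read by MTT.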

HepG2 cell line = assay: In vitro cell proliferation assay (MTT), HepG2; assay type: cell-based; conditions: Homo sapiens, HepG2, 72 h; read-out: EC50, anti-proliferative activity
Outline: as §2

HuCCT1 cell line = assay: In vitro cell proliferation assay (MTT), HuCCT1; assay type: cell-based; conditions: Homo sapiens, HuCCT-1; HuCCT1, 72 hr, MTT; read-out: EC50, anti-proliferative activity
Description: (§3) 2) In Vitro Cell Proliferation Assays (Table 22 to Table 35)
(§4) Cancer cell lines (5×10^3 cells per well) or HUVEC (1×10^4 cells per well) or HRMEC (1×10^4 cells per well) were distributed in 96-well plates and incubating in duplicate with escalating concentrations (10 nM to 3 μM) of compounds for 72 hr. Cell proliferation was measured using MTT (3[4,5-dimethylthiazol-2-yl]-2,5-diphenyltetrazolium bromide).

HuH6 Clone 5 cell line = assay: In vitro cell proliferation assay (MTT), HuH6 Clone 5; assay type: cell-based; conditions: HUH-6-clone5; HuH6 Clone 5, 72 hr, MTT; read-out: EC50, anti-proliferative activity
Description: as §3, §4

HuH7 cell line = assay: In vitro cell proliferation assay (MTT), HuH7; assay type: cell-based; conditions: Homo sapiens, Huh-7, 72 h; read-out: EC50, anti-proliferative activity
Description: as §3, §4

HT29 cell line = assay: In vitro cell proliferation assay (MTT), HT29; assay type: cell-based; conditions: Homo sapiens, HT-29; HT29, 72 hr, MTT; read-out: EC50, anti-proliferative activity
Description: as §3, §4

BxPC-3 cell line = assay: In vitro cell proliferation assay (MTT), BxPC-3; assay type: cell-based; conditions: Homo sapiens, read-out: EC50, anti-proliferative activity
Description: as §3, §4

H1975 cell line = assay: In vitro cell proliferation assay (MTT), H1975; assay type: cell-based; conditions: Homo sapiens, NCI-H1975; H1975, 72 hr, MTT; read-out: EC50, anti-proliferative activity
Description: as §3, §4

HUVEC = assay: In vitro cell proliferation assay (MTT), HUVEC; assay type: cell-based; conditions: Homo sapiens, 72 h, read-out: EC50, anti-proliferative activity
Outline: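 HUVEC cells were plated at 1×10^4 cells per well in 96-well plates and exposed in duplicate to increasing compound concentrations from 10 nM to 3 μM for 72 hr. Proliferation was then quantified with MTT (3[4,5-dimethylthiazol-2-yl]-2,5-diphenyltetrazolium bromide) to determine anti-proliferative activity.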

PC3 cell line = assay: In vitro cell proliferation assay (MTT), PC3; assay type: cell-based; conditions: Homo sapiens, PC-3, 72 h; read-out: EC50, anti-proliferative activity
Description: as §3, §4

Caki-2 = assay: In vitro cell proliferation assay (MTT), Caki-2; assay type: cell-based; conditions: Homo sapiens; Caki-2, 72 hr, MTT; read-out: EC50, anti-proliferative activity
Description: as §3, §4

MDA-MB-231 cell line = assay: In vitro cell proliferation assay (MTT), MDA-MB-231; assay type: cell-based; conditions: Homo sapiens, MDA-MB-231, 72 h; read-out: EC50, anti-proliferative activity
Outline: as §2

HRMEC cells = assay: In vitro cell proliferation assay (MTT), HRMEC; assay type: cell-based; conditions: 72 hr, MTT, read-out: EC50, anti-proliferative activity
Description: as §3, §4

HepG2 cells = assay: Human hepatocellular carcinoma mouse model (HepG2 xenograft); assay type: in vivo, athymic nude male mice; conditions: 20 mg/kg q.d. per os for 15 consecutive days
Description: 3) In Vivo Studies (Table 36)
Human hepatocellular carcinoma mouse model was prepared by subcutaneously implanting HepG2 cells (1×10^7 cell/mL in sterile PBS), into the right flank of athymic nude male mice (HSD, 6-7 weeks old). When the tumor volume reached approximately 200 mm^3, mice were assigned randomly to either vehicle alone or ORB compounds treatment groups (six mice per group). Mice were treated with either vehicle (PEG400) or OR0720, OR0721, OR0811 (20 mg/kg q.d.; per os for 15 consecutive days).
Tumor volumes in mm^3 were determined three times a week with a digital caliper and calculated using the following formula: Tumor Volume (mm)=length (mm)×width (mm)×width (mm)×½. Body weight was measured three times a week, and mice were observed daily for monitoring signs of stress to detect possible toxicities. One-way ANOVA was used for statistical comparisons. Data were analyzed with Prism 5.0 b (GraphPad Software) by one-way ANOVA with Bonferroni post hoc. Tumor Growth Inhibition (TGI) is calculated as the percent decrease of tumor growth at the end of the study in the ORB compounds treatment groups in comparison to the vehicle alone treatment group.

ABL = target: T8, ABL (Homo sapiens, UniProt P00519); assay: In vitro kinase assay (Z'-LYTE), ABL; assay type: biochemical; conditions: read-out: % of inhibition of the kinase compared to the control
T8 construct: purchased Invitrogen
Description: (§5) 1) In Vitro Kinase Assays (Table 10 to Table 21)
(§6) The inhibitory activity of the compounds on several kinases including BRAF, EGFR (ErbB1), EGFR (ErbB1) T790M L858R, FGFR2, KDR (VEGFR2), PDGFRA (PDGFR alpha), SRC and other was evaluated by Invitrogen using the Z′-LYTE® technology. Briefly, the Z′-LYTE® biochemical assay employs a fluorescence-based, coupled-enzyme format and is based on the differential sensitivity of phosphorylated and non-phosphorylated peptides to proteolytic cleavage. The peptide substrate is labeled with two fluorophores—one at each end—that make up a FRET pair. A ratiometric method, which calculates the ratio (the Emission Ratio) of donor emission to acceptor emission after excitation of the donor fluorophore at 400 nm, is used to quantitate reaction progress.
(§7) The compounds are screened in 1% DMSO (final) in the well. For 10 point titrations, 3-fold serial dilutions are conducted from the starting concentration. All Peptide/Kinase Mixtures are diluted to a 2× working concentration in the appropriate Kinase Buffer. All ATP Solutions are diluted to a 4× working concentration in Kinase Buffer (50 mM HEPES pH 7.5, 0.01% BRIJ-35, 10 mM MgCl2, 1 mM EGTA). ATP Km apparent is previously determined using a Z′-LYTE® assay.
(§8) Each compound was incubated at a concentration of 100 nM (excepted to test the activity against ABL and ABL T315I for which the compounds were incubated at a concentration of 10 μM) and the tables 10 to 21 summarize the results obtained showing the inhibitory power of a compound.

ABL T315I = target: T9, ABL T315I (Homo sapiens, UniProt P00519, T315I); assay: In vitro kinase assay (Z'-LYTE), ABL T315I; assay type: biochemical; conditions: read-out: % of inhibition of the kinase compared to the control
T9 construct: purchased Invitrogen
Description: as §5, §6, §7, §8

FGFR1 = target: T10, FGFR1 (Homo sapiens, UniProt P11362); assay: In vitro kinase assay (Z'-LYTE), FGFR1; assay type: biochemical; conditions: read-out: % of inhibition of the kinase compared to the control
T10 construct: purchased Invitrogen
Description: as §5, §6
as §7, with “assay. […]” for “assay.”

VEGFR1 = target: T11, VEGFR1 (Homo sapiens, UniProt P17948); assay: In vitro kinase assay (Z'-LYTE), VEGFR1; assay type: biochemical; conditions: read-out: % of inhibition of the kinase compared to the control
T11 construct: purchased Invitrogen
Description: as §5, §6
as §7, with “assay. […]” for “assay.”

PDGFRB = target: T12, PDGFRB (Homo sapiens, UniProt P09619); assay: In vitro kinase assay (Z'-LYTE), PDGFRB; assay type: biochemical; conditions: read-out: % of inhibition of the kinase compared to the control
T12 construct: purchased Invitrogen
Description: as §5, §6
as §7, with “assay. […]” for “assay.”

- inhibition at 0.1 µM (BRAF): ≥ 50%
- inhibition at 0.1 µM (EGFR (ErbB1)): < 50%
- inhibition at 0.1 µM (EGFR (ErbB1) T790M L858R): < 50%
- inhibition at 0.1 µM (FGFR2): < 50%
- inhibition at 0.1 µM (KDR (VEGFR2)): ≥ 50%
- inhibition at 0.1 µM (PDGFRA (PDGFR alpha)): ≥ 50%
- inhibition at 0.1 µM (SRC): ≥ 50%
- EC50 (A549 cell line): ≥ 1000 nM
- EC50 (HepG2 cell line): ≤ 100 nM
- EC50 (HuH6 Clone 5 cell line): ≥ 1000 nM
- EC50 (HuH7 cell line): 100 to 1000 nM
- EC50 (HT29 cell line): ≥ 1000 nM
- EC50 (BxPC-3 cell line; BXPC-3, 72 h): 100 to 1000 nM
- EC50 (H1975 cell line): ≥ 1000 nM
- EC50 (PC3 cell line): 100 to 1000 nM
- EC50 (MDA-MB-231 cell line): 100 to 1000 nM
SMILES: CC(=O)c1cc2cc(NCc3cc(NC(=O)c4cncc(C(F)(F)F)c4)ccc3C)cnc2[nH]1 [OR0721, N-{3-[(2-Acetyl-1H-pyrrolo[2,3-b]pyridin-5-ylamino)-methyl]-4-methyl-phenyl}-5-trifluoromethyl-nicotinamide]
- EC50 (HuCCT1 cell line): ≥ 1000 nM
- EC50 (HUVEC): 100 to 1000 nM
- EC50 (Caki-2): ≥ 1000 nM
- EC50 (HRMEC cells): ≥ 1000 nM
- tumor growth in xenografted mice bearing human hepatocellular carcinoma tumors (HepG2 cells): significantly induced a decrease of tumor growth
- Anti-tumor activity (Tumor Growth Inhibition—TGI) (HepG2 cells; mice, HepG2 xenograft, end of study vs vehicle): 54%*

- inhibition at 0.1 µM (BRAF): < 50%
- inhibition at 0.1 µM (EGFR (ErbB1)): ≥ 50%
- inhibition at 0.1 µM (EGFR (ErbB1) T790M L858R): ≥ 50%
- inhibition at 0.1 µM (FGFR2): < 50%
- inhibition at 0.1 µM (KDR (VEGFR2)): ≥ 50%
- inhibition at 0.1 µM (PDGFRA (PDGFR alpha)): ≥ 50%
- inhibition at 0.1 µM (SRC): ≥ 50%
- inhibition at 10 µM (ABL): ≥ 50%
- inhibition at 10 µM (ABL T315I): < 50%
- inhibition at 0.1 µM (FGFR1): < 50%
- inhibition at 0.1 µM (VEGFR1): ≥ 50%
- inhibition at 0.1 µM (PDGFRB): < 50%
- EC50 (A549 cell line): ≥ 1000 nM
- EC50 (BxPC-3 cell line; BxPC-3, 72 hr, MTT): ≥ 1000 nM
SMILES: Cc1cn(-c2cc(C(=O)Nc3ccc(C)c(CNc4cnc5[nH]c(C(=O)O)cc5c4)c3)cc(C(F)(F)F)c2)cn1 [OR0653, 5-{2-Methyl-5-[3-(4-methyl-imidazol-1-yl)-5-trifluoromethyl-benzoylamino]-benzylamino}-1H-pyrrolo[2,3-b]pyridine-2-carboxylic acid]
